{
  "source": "ChEMBL document CHEMBL1134873",
  "about": "“Synthesis and antiparasitic activity of 1H-benzimidazole derivatives” (Bioorg Med Chem Lett, 2002)",
  "data": [
    {"tested_on": "Giardia intestinalis", "test": "The compound was tested in vitro against the protozoa Giardia lamblia, for the inhibition of tubulin polymerization in rat brain", "type": "functional", "conditions": "Giardia duodenalis", "units": {"IC50": "nM"}, "values": [
      {"smiles": "Sc1nc2cc(Cl)ccc2[nH]1", "IC50": 81},
      {"smiles": "c1ccc2[nH]cnc2c1", "note": "[BENZIMIDAZOLE]", "IC50": 8},
      {"smiles": "Cc1nc2ccccc2[nH]1", "IC50": 317},
      {"smiles": "CSc1nc2cc(Cl)c(Cl)cc2[nH]1", "IC50": 227},
      {"smiles": "Cc1nc2cc(Cl)c(Cl)cc2[nH]1", "IC50": 65},
      {"smiles": "Nc1nc2ccc(Cl)cc2[nH]1", "IC50": 30},
      {"smiles": "Cc1nc2cc(Cl)ccc2[nH]1", "IC50": 156},
      {"smiles": "CSc1nc2cc(Cl)ccc2[nH]1", "IC50": 5},
      {"smiles": "CSc1nc2ccccc2[nH]1", "IC50": 45},
      {"smiles": "Nc1nc2cc(Cl)c(Cl)cc2[nH]1", "IC50": 218},
      {"smiles": "Nc1nc2ccccc2[nH]1", "IC50": 1900},
      {"smiles": "Sc1nc2ccccc2[nH]1", "note": "[2-MERCAPTOBENZIMIDAZOLE]", "IC50": 40},
      {"smiles": "COC(=O)Nc1nc2cc(Cl)ccc2[nH]1", "IC50": 66},
      {"smiles": "COC(=O)Nc1nc2ccccc2[nH]1", "note": "[CARBENDAZIM]", "IC50": 57},
      {"smiles": "Sc1nc2cc(Cl)c(Cl)cc2[nH]1", "IC50": 78},
      {"smiles": "Clc1cc2nc[nH]c2cc1Cl", "IC50": 358},
      {"smiles": "Clc1ccc2[nH]cnc2c1", "IC50": 282},
      {"smiles": "COC(=O)Nc1nc2cc(Cl)c(Cl)cc2[nH]1", "IC50": 127}
    ]},
    {"tested_on": "Trichinella spiralis", "test": "Percentage viability reduction of Trichinella spiralis muscle larvae after 3 days of incubation", "type": "functional", "parameters": "concentration or dose not given beside the values", "conditions": "not given", "units": {"Viability": "%"}, "values": [
      {"smiles": "Sc1nc2cc(Cl)ccc2[nH]1", "Viability": 13},
      {"smiles": "CSc1nc2cc(Cl)c(Cl)cc2[nH]1", "Viability": 17},
      {"smiles": "Cc1nc2cc(Cl)c(Cl)cc2[nH]1", "Viability": 8},
      {"smiles": "Nc1nc2ccc(Cl)cc2[nH]1", "Viability": 17},
      {"smiles": "Cc1nc2cc(Cl)ccc2[nH]1", "Viability": 14},
      {"smiles": "CSc1nc2cc(Cl)ccc2[nH]1", "Viability": 15},
      {"smiles": "Nc1nc2cc(Cl)c(Cl)cc2[nH]1", "Viability": 2},
      {"smiles": "Nc1nc2ccccc2[nH]1", "Viability": 9},
      {"smiles": "CCCSc1ccc2[nH]c(NC(=O)OC)nc2c1", "note": "[ALBENDAZOLE]", "Viability": 34},
      {"smiles": "Sc1nc2ccccc2[nH]1", "note": "[2-MERCAPTOBENZIMIDAZOLE]", "Viability": 11},
      {"smiles": "COC(=O)Nc1nc2cc(Cl)ccc2[nH]1", "Viability": 19},
      {"smiles": "Sc1nc2cc(Cl)c(Cl)cc2[nH]1", "Viability": 23},
      {"smiles": "Clc1cc2nc[nH]c2cc1Cl", "Viability": 18},
      {"smiles": "Clc1ccc2[nH]cnc2c1", "Viability": 27},
      {"smiles": "COC(=O)Nc1nc2cc(Cl)c(Cl)cc2[nH]1", "Viability": 14}
    ]},
    {"tested_on": "Trichinella spiralis", "test": "Percentage viability reduction of Trichinella spiralis muscle larvae after 3 days of incubation; No reduction observed", "type": "functional, organism-based", "conditions": "not given", "values": [
      {"smiles": "c1ccc2[nH]cnc2c1", "note": "[BENZIMIDAZOLE]", "Viability": "No reduction observed"},
      {"smiles": "Cc1nc2ccccc2[nH]1", "Viability": "No reduction observed"},
      {"smiles": "CSc1nc2ccccc2[nH]1", "Viability": "No reduction observed"},
      {"smiles": "COC(=O)Nc1nc2ccccc2[nH]1", "note": "[CARBENDAZIM]", "Viability": "No reduction observed"}
    ]},
    {"tested_on": "Entamoeba histolytica", "test": "The compound was tested in vitro against the protozoa Entamoeba histolytica, for the inhibition of tubulin polymerization in rat brain", "type": "functional", "conditions": "not given", "units": {"IC50": "nM"}, "values": [
      {"smiles": "Sc1nc2cc(Cl)ccc2[nH]1", "IC50": 5},
      {"smiles": "c1ccc2[nH]cnc2c1", "note": "[BENZIMIDAZOLE]", "IC50": 42},
      {"smiles": "Cc1nc2ccccc2[nH]1", "IC50": 7},
      {"smiles": "CSc1nc2cc(Cl)c(Cl)cc2[nH]1", "IC50": 356},
      {"smiles": "Cc1nc2cc(Cl)c(Cl)cc2[nH]1", "IC50": 25},
      {"smiles": "Nc1nc2ccc(Cl)cc2[nH]1", "IC50": 125},
      {"smiles": "Cc1nc2cc(Cl)ccc2[nH]1", "IC50": 84},
      {"smiles": "CSc1nc2cc(Cl)ccc2[nH]1", "IC50": 192},
      {"smiles": "CSc1nc2ccccc2[nH]1", "IC50": 393},
      {"smiles": "Nc1nc2cc(Cl)c(Cl)cc2[nH]1", "IC50": 59},
      {"smiles": "Nc1nc2ccccc2[nH]1", "IC50": 114},
      {"smiles": "Sc1nc2ccccc2[nH]1", "note": "[2-MERCAPTOBENZIMIDAZOLE]", "IC50": 133},
      {"smiles": "COC(=O)Nc1nc2cc(Cl)ccc2[nH]1", "IC50": 350},
      {"smiles": "COC(=O)Nc1nc2ccccc2[nH]1", "note": "[CARBENDAZIM]", "IC50": 204},
      {"smiles": "Sc1nc2cc(Cl)c(Cl)cc2[nH]1", "IC50": 55},
      {"smiles": "Clc1cc2nc[nH]c2cc1Cl", "IC50": 96},
      {"smiles": "Clc1ccc2[nH]cnc2c1", "IC50": 39},
      {"smiles": "COC(=O)Nc1nc2cc(Cl)c(Cl)cc2[nH]1", "IC50": 46}
    ]}
  ]
}
